Measurements published in PubChem BioAssay (NCI).
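Following 48 hours of exposure in 96-well plates, responses at five concentrations were used to interpolate endpoints linearly. At the TGI there is no net growth.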

Tests used:
Assay in all cases: NCI tumour cell line growth inhibition, 48 h
RPMI-8226 leukemia = tested on: RPMI-8226 leukemia
HS 578T breast = tested on: HS 578T breast
OVCAR-8 ovarian = tested on: OVCAR-8 ovarian
PC-3 prostate = tested on: PC-3 prostate
HCC-2998 colon = tested on: HCC-2998 colon
SW-620 colon = tested on: SW-620 colon
HOP-92 NSCLC = tested on: HOP-92 NSCLC
SNB-19 CNS = tested on: SNB-19 CNS
U251 CNS = tested on: U251 CNS
KM12 colon = tested on: KM12 colon
NCI-H226 lung = tested on: NCI-H226 lung
HT29 colon = tested on: HT29 colon
BT-549 breast = tested on: BT-549 breast
MALME-3M melanoma = tested on: MALME-3M melanoma
LOX IMVI melanoma = tested on: LOX IMVI melanoma
MDA-N = tested on: MDA-N

Measured: TGI

COc1ccc(CCNC(=O)Cc2ccccc2CCO)cc1OC
not listed: MALME-3M melanoma | LOX IMVI melanoma | MDA-N
> 100 µM: all other assays above

CCC(=O)NCC1(c2c[nH]c3ccccc23)SCCS1
not listed: HS 578T breast | PC-3 prostate | BT-549 breast | MDA-N
> 100 µM: all other assays above

C[C@@H]1O[C@@H]2OCC[C@@H]2C2=C1C(=O)c1ccccc1C2=O
5.65 µM: LOX IMVI melanoma
30.9 µM: RPMI-8226 leukemia
29.5 µM: U251 CNS
36.5 µM: SNB-19 CNS
61.5 µM: NCI-H226 lung
15.2 µM: SW-620 colon
4.95 µM: MALME-3M melanoma
3.35 µM: MDA-N
30.7 µM: KM12 colon
35.4 µM: HCC-2998 colon
18.9 µM: HOP-92 NSCLC
not listed: BT-549 breast
> 100 µM: all other assays above

COc1ccccc1OCc1nnc(SCC(=O)O)n1-c1ccccc1
not listed: HS 578T breast | PC-3 prostate | SW-620 colon | SNB-19 CNS | BT-549 breast | MDA-N
> 100 µM: all other assays above

S=C(NNC1=NCCCCN1)Nc1ccccc1
94.7 µM: LOX IMVI melanoma
not listed: HS 578T breast | SW-620 colon | HOP-92 NSCLC
> 100 µM: all other assays above

CC(=O)C1CC2(c3ccccc3)C(=O)c3ccccc3N2O1 (stereo unspecified)
not listed: HS 578T breast | PC-3 prostate | KM12 colon | BT-549 breast | LOX IMVI melanoma | MDA-N
> 100 µM: all other assays above

N[C@H]1CCc2c1nc1c(c2-c2ccccc2)CC[C@@H]1N
55.3 µM: U251 CNS
31.9 µM: MALME-3M melanoma
30.6 µM: LOX IMVI melanoma
28.1 µM: BT-549 breast
29.5 µM: PC-3 prostate
27.5 µM: SW-620 colon
49.2 µM: HCC-2998 colon
26 µM: HT29 colon
not listed: HS 578T breast | MDA-N
> 100 µM: all other assays above

CCOP(=O)(C/C(=N/NC(C)(C)C)C(=O)Nc1nc2ccc(C)cc2s1)OCC
not listed: RPMI-8226 leukemia | HS 578T breast | PC-3 prostate | HOP-92 NSCLC | BT-549 breast | MDA-N
> 100 µM: all other assays above

Cc1ccccc1N=Nc1ccc(N=Nc2c(O)ccc3cc(S(=O)(=O)O)cc(S(=O)(=O)O)c23)c(C)c1
not listed: LOX IMVI melanoma | MDA-N
> 100 µM: all other assays above

O=C(C1=CCC2(CC1)OCCO2)N(Cc1ccccc1)c1ccccc1I
43.2 µM: HOP-92 NSCLC
29.5 µM: KM12 colon
34.8 µM: NCI-H226 lung
59.9 µM: PC-3 prostate
> 100 µM: SW-620 colon
96.4 µM: MDA-N
37.3 µM: SNB-19 CNS
22.7 µM: HS 578T breast
56.8 µM: LOX IMVI melanoma
97.6 µM: RPMI-8226 leukemia
36 µM: HT29 colon
32.8 µM: HCC-2998 colon
48.1 µM: U251 CNS
30.1 µM: OVCAR-8 ovarian

CC1(Br)C(=O)NC(=O)N([C@H]2C[C@H](O)[C@@H](CO)O2)C1N=[N+]=[N-] (stereo partly specified)
not listed: HS 578T breast | PC-3 prostate | BT-549 breast | MDA-N
> 100 µM: all other assays above

COc1ccc(OC)c2c1C(=O)C(Cl)=C(Cl)C2=O
33.8 µM: KM12 colon
15.5 µM: HT29 colon
4.46 µM: MALME-3M melanoma
6.06 µM: HS 578T breast
31.2 µM: HCC-2998 colon
> 77.4 µM: SNB-19 CNS
8.14 µM: HOP-92 NSCLC
4.19 µM: MDA-N
> 27.6 µM: RPMI-8226 leukemia
42.2 µM: NCI-H226 lung
27.6 µM: PC-3 prostate
3.6 µM: SW-620 colon
5.18 µM: LOX IMVI melanoma
18.3 µM: OVCAR-8 ovarian
38.9 µM: U251 CNS

CN(C)CC1CCC(CN(C)C)C1=NO (stereo unspecified)
> 100 µM: MALME-3M melanoma | RPMI-8226 leukemia | OVCAR-8 ovarian | HCC-2998 colon | SW-620 colon | HOP-92 NSCLC | LOX IMVI melanoma | HT29 colon

CCOC(=O)c1c(N2CCOCC2)[nH]c(=O)c(C(c2ccc(N(C)C)cc2)c2c(O)c(C(=O)OCC)c(N3CCOCC3)[nH]c2=O)c1O
not listed: MDA-N
> 100 µM: all other assays above

O=c1[nH]nc2c3n[nH]c(=O)n3c3ccccc3n12
not listed: HS 578T breast | PC-3 prostate | BT-549 breast | MDA-N
> 100 µM: all other assays above

C/C(CC(=O)Nc1ccc(C)cc1)=N\NC(N)=S
not listed: HS 578T breast | PC-3 prostate | SNB-19 CNS | BT-549 breast | MDA-N
> 100 µM: all other assays above

CN(C)CCCNC(=O)c1cc(NC(=O)CCCn2c3ccccc3c3ccccc32)cn1C
9.32 µM: HOP-92 NSCLC
61.7 µM: MALME-3M melanoma
not listed: HS 578T breast | HCC-2998 colon
> 100 µM: all other assays above

COc1cc([C@@H]2c3cc4c(cc3[C@@H](NC(=O)c3ccc(C(C)=O)cc3)C3COC(=O)[C@@H]32)OCO4)cc(OC)c1O (stereo partly specified)
27 µM: HOP-92 NSCLC
3.33 µM: MALME-3M melanoma
1.65 µM: U251 CNS
14.5 µM: RPMI-8226 leukemia
> 100 µM: SNB-19 CNS
13.7 µM: OVCAR-8 ovarian
1.93 µM: NCI-H226 lung
12.3 µM: SW-620 colon
5.68 µM: KM12 colon
7.91 µM: HCC-2998 colon
6.34 µM: HT29 colon
4.68 µM: LOX IMVI melanoma

CCCN(CCC)C(=O)Cc1c2n(c3ccccc13)CCCc1ccccc1-2
29.1 µM: LOX IMVI melanoma
30.2 µM: SW-620 colon
29.9 µM: OVCAR-8 ovarian
26.8 µM: MALME-3M melanoma
29.4 µM: U251 CNS
14.7 µM: HOP-92 NSCLC
27.7 µM: SNB-19 CNS
37.6 µM: RPMI-8226 leukemia
25.2 µM: KM12 colon
26 µM: HT29 colon
28.5 µM: NCI-H226 lung
25.9 µM: HCC-2998 colon

O=S(=O)(O)c1cc(O)c2c(O)c(N=Nc3ccc(/C=C/c4ccc(N=Nc5c(S(=O)(=O)O)cc6cc(S(=O)(=O)O)cc(O)c6c5O)cc4S(=O)(=O)O)c(S(=O)(=O)O)c3)c(S(=O)(=O)O)cc2c1
not listed: HS 578T breast | PC-3 prostate | BT-549 breast | MDA-N
> 100 µM: all other assays above

CCN(CC)CCNC(=O)c1ccccc1Nc1c(Cl)cccc1Cl
20.7 µM: U251 CNS
21 µM: HCC-2998 colon
24.3 µM: LOX IMVI melanoma
38.5 µM: NCI-H226 lung
29.6 µM: SW-620 colon
30.2 µM: RPMI-8226 leukemia
30.9 µM: SNB-19 CNS
19 µM: HT29 colon
31.5 µM: OVCAR-8 ovarian

CN1C(=O)c2cccc3c([N+](=O)[O-])ccc(c23)C1=O
31.1 µM: MALME-3M melanoma
19.9 µM: HOP-92 NSCLC
4.05 µM: NCI-H226 lung
18.3 µM: KM12 colon
6.12 µM: SW-620 colon
13.8 µM: U251 CNS
18.9 µM: OVCAR-8 ovarian | LOX IMVI melanoma
17.4 µM: HCC-2998 colon
28 µM: SNB-19 CNS

C1CSCCSS[C@@H]2CCCCC2SC1 (stereo partly specified)
97.8 µM: HOP-92 NSCLC
not listed: RPMI-8226 leukemia | HS 578T breast | NCI-H226 lung | MALME-3M melanoma
> 100 µM: all other assays above

COC(=O)[C@@H]1C[C@H]2[C@H](c3ccccc3Br)[C@@H](OC(C)=O)[C@@H](OCc3ccccc3)ON2O1
not listed: RPMI-8226 leukemia | HS 578T breast | HOP-92 NSCLC | NCI-H226 lung | MALME-3M melanoma
> 100 µM: all other assays above

COC(=O)C(=O)C(C(=O)C(=O)Nc1ccc([N+](=O)[O-])cc1C#N)c1nc2ccc([N+](=O)[O-])cc2[nH]c1=O (stereo unspecified)
not listed: HS 578T breast | PC-3 prostate | HCC-2998 colon | BT-549 breast | MDA-N
> 100 µM: all other assays above

Cc1ccc(-c2n[nH]c(CC#N)n2)cc1
not listed: RPMI-8226 leukemia | NCI-H226 lung | MDA-N
> 100 µM: all other assays above

C/C(=N\O)C(CN(C)C)C(c1ccccc1)c1c(O)c2ccccc2oc1=O (stereo unspecified)
not listed: HS 578T breast | PC-3 prostate | BT-549 breast | MDA-N
> 100 µM: all other assays above

O=[N+]([O-])/C(Cl)=C(\Sc1ccccc1)C(Cl)=C(Cl)Cl
0.97 µM: LOX IMVI melanoma
1.97 µM: MALME-3M melanoma
0.351 µM: OVCAR-8 ovarian
4.26 µM: SNB-19 CNS
4.47 µM: NCI-H226 lung
3.21 µM: KM12 colon
3.69 µM: U251 CNS
0.761 µM: MDA-N
3.4 µM: HOP-92 NSCLC
3.84 µM: HCC-2998 colon
1.8 µM: HS 578T breast | HT29 colon
4.12 µM: PC-3 prostate

CCCCNC(=O)C1=C(C)NC(C)=C(C(=O)NCCCC)C1
not listed: RPMI-8226 leukemia | HS 578T breast | PC-3 prostate | MALME-3M melanoma
> 100 µM: all other assays above

CCOC(=O)NC(=O)c1cn(-c2ccc(CCOC(=O)CCCCCCCCC(=O)OCCc3ccc(-n4cc(C(=O)NC(=O)OCC)c(=O)[nH]c4=O)cc3)cc2)c(=O)[nH]c1=O
88.7 µM: HOP-92 NSCLC
not listed: HS 578T breast | PC-3 prostate | BT-549 breast | MDA-N
> 100 µM: all other assays above

COc1cc2c(cc1OC)[C@]1(O)C(=O)c3ccc4c(c3O[C@@H]1CO2)C[C@H](C(C)(C)O)O4
not listed: HS 578T breast | PC-3 prostate | NCI-H226 lung | BT-549 breast | MDA-N
> 100 µM: all other assays above

CCN(CC)CC1CCCCN1CC(=O)N1c2ccc(Br)cc2C(=O)Nc2cccnc21 (stereo unspecified)
not listed: SW-620 colon | BT-549 breast
> 100 µM: all other assays above

N#CC1(C#N)C(c2ccccc2)NC23CCCCC2C1(C#N)C(=O)N3 (stereo unspecified)
not listed: HS 578T breast | LOX IMVI melanoma
> 100 µM: all other assays above

CCOC(=O)C1C(=O)CC(C)(O)C(C(=O)OCC)C1c1ccc(O)c(OC)c1 (stereo unspecified)
not listed: RPMI-8226 leukemia | HS 578T breast
> 100 µM: all other assays above
